Test results published in patent US12522614B2, “Topical phosphoinositide 3-kinase inhibitors” (VENTHERA, INC., priority 2019, dated 2026).
pIC50: −log10 of the molar value.

Legend:
[1] = In vitro human skin permeation study of topical gel formulations (Franz diffusion cells); format: in vitro ADME; settings: saturated gel formulations, skin flux experiments
Text: The gel formulation of Example 8 was used as the donor phase to determine the permeation of Compound 1.002 through human skin and its effectiveness as a topical application. Three skin donors and three diffusion cells (for each donor) per formulation were used in the in vitro skin permeation experiments. Split thickness dermatomed (approximately at […] thickness) human cadaver skin, supplied by New York Firefighters Skin Bank, NY, was used to determine the permeation rate of the tested compound (i.e., the drug) in vitro. All in vitro skin permeation studies were conducted using the Vertical Diffusion Cells assembly with consoles (Model FDC-6), and heating controllers (Logan Instruments Inc. Somerset, NJ). Each assembly consisted of six vertical, jacketed (37° C.±0.5° C.) 12-mL Franz diffusion cells with magnetic stirrer and 1.767 cm^2 diffusion area.
(§1) Skin flux studies were run for a period of 48 hours. At predetermined intervals (2, 4, 8, 24 and 48 hours) after starting the experiment, the entire contents of the receiver compartment were collected for determining concentrations of the drug by HPLC. The receiver compartment was refilled with fresh receiver medium. The receiver medium was pH 7.4 phosphate buffer with 0.5 mg/ml of Oleath 20 with the saturation concentration of the drug in the receptor medium being 0.152 mg/ml. This solubility of the drug in the receiver medium was enough to ensure sink conditions throughout each collection interval.
Samples of the receptor phase were obtained at 2, 4, 8, 12, 24 and 48 h and concentrations of Compound 1.002 and 3-(4-morpholinothieno(3,2-d)pyrimidin-2-yl)phenol (metabolite of Compound 1.002, abbreviated as MTPP) were determined using a validated HPLC method. The metabolism of Compound 1.002 to MTPP takes place in the human skin by esterase enzymes.
HPLC method: Column—Gemini C-18 4.6×150 mm, 5 μm particle size; Mobile Phase—water:acetonitrile 25:75 containing 0.1% TFA; Flow Rate—1 mL/min; Detection—274 nm; Column Temperature—40° C.; and Run Time—10 min. The retention times for MTPP and Compound 1.002 were 3.9 and 7.2 minutes, respectively.
The skin flux of drugs and cumulative amount of drugs permeated (sum of MTPP and Compound 1.002) for a period of 48 hours were calculated and are shown in Table 3. FIG. 3 represents a plot of Cumulative amount permeated versus time.

[2] = Saturation concentration in formulation or receiver medium; format: physicochemical; settings: gel formulation with excipients of Example 8 (Table 2)
Method: The liquid excipients, i.e. DMSO, oleic acid, Transcutol® P, and dipropylene glycol were mixed in a 20-mL vial, by vortex agitation. The active ingredient, a compound of formula (I), for example Compound 1.002 was then added, and the vial content was sonicated for 10 minutes to dissolve the compound. […] Hydroxylpropyl cellulose (HPC) was added, and the vial was agitated by vortex for another ten minutes to obtain the gel formulation. The viscosity of the clear gel was measured to be in a range of about 7,000 to 10,000 centipoise (cp).
as §1

[3] = Accelerated stability study of topical gel formulations at 80° C.; format: physicochemical; settings: gel formulation (Table 2 excipients), 80° C.
Method: Topical gel formulations were prepared using excipients as shown in Table 2 according to Example 8, in which Compounds 1.002, 1.012, and 1.006 were used as the active ingredient, respectively. These gel formulations were subjected to stability study at 80° C. for 10 days. Stability under the condition of at 80° C. for 10 days is expected to be approximately equivalent to the stability for three (3) years at room temperature. A relative purity of the tested compound after being exposed for 5 days and 10 days at 80° C. was determined by HPLC, as compared to its initial purity (at day 0).
The values shown in the table are percent hydrolysis of the respective compounds to the parent compound MTPP.
Topical gel formulations of Compound 1.002 were prepared using excipients as shown in Table 2 according to Example 8, in which the content of oleic acid varied at 1%, 2%, 5%, and 10%, respectively. These gel formulations were subjected to stability study at 80° C. for 10 days, which is expected to be approximately equivalent to the stability for three (3) years at room temperature. A purity of the tested compound on day 0, 5, 7, and 10 at 80° C. was determined by HPLC. The detected impurity of the tested compound appears to be the hydrolysis product, as MTPP. Table 17 represents stability data of Compound 1.002 in topical formulations having oleic acid at various contents.
Gel formulations of Example 17 were subjected to stability study at 80° C. for 10 days. Stability under the condition of at 80° C. for 10 days is expected to be approximately equivalent to the stability for three (3) years at room temperature. A relative purity of Compound 1.002 after being exposed for 5 days and 10 days at 80° C. was determined by HPLC, as compared to its initial purity (at day 0).

[4] = In vitro human skin permeation study of topical gel formulations (Franz diffusion cells); format: in vitro ADME; settings: human skin; for Cumulative permeation, Compound 1.012 / Hydrolysis of Cmpd. 1.012 to MTPP: Study-6, gel saturated at 58 mg/mL; for Cumulative permeation (intact compound): Study-4, saturated gel
MTOR/FRAP1 = target: T1, MTOR/FRAP1 (Homo sapiens, UniProt P42345); assay: Lipid kinase inhibitory activity, ADP-Glo; format: biochemical
T1 construct: purchased Reaction Biology Corporation (RBC)
Method: (§2) Lipid kinases: Lipid kinases from Reaction Biology Corporation (RBC) in ADP-Glo format were used.
(§3) Assay Description: The kinase reactions utilized ATP and produced ADP as a byproduct. The ADP production was quantified by ADP-Glo luminescence detection. This assay was a 3-step reaction. First, the kinase reaction with lipid substrate was carried out in the presence of ATP, and the reaction was quenched and depleted remaining ATP with ADP-Glo™ reagent, and then finally ADP was converted to ATP which was measured using a luciferase/luciferin reaction.
(§4) Assay Procedure: The assay was performed according to the steps as follows: • 1. Preparing substrate in freshly prepared reaction buffer; • 2. Delivering kinase into the substrate solution and gently mixing; • 3. Delivering compounds in […] into the kinase reaction mixture by Acoustic technology (Echo550; nanoliter range), incubating for 20 minutes at room temperature; • 4. Delivering ATP into the reaction mixture to initiate the reaction; • 5. Incubating for 30 minutes at 30° C.; • 6. Quenching the reaction with ADP-Glo reagent and incubating for 40 minutes; • 7. Adding Detection Mixture and incubating for 30 minutes; and • 8. Measuring luminescence.
(§5) Data Analysis: The luminescence was converted into μM ADP production based on ADP standard curves. The nonlinear regression to obtain the standard curve and IC50 values were performed using Graphpad Prism software.

PI3K (p110a(E542K)/p85a) = target: T2, PI3K (p110a(E542K)/p85a) (Homo sapiens, UniProt P42336, E542K); assay: Lipid kinase inhibitory activity, ADP-Glo; format: biochemical; settings: α E542K
T2 construct: purchased Reaction Biology Corporation (RBC)
T2 sequence (P42336 whole entry E542K): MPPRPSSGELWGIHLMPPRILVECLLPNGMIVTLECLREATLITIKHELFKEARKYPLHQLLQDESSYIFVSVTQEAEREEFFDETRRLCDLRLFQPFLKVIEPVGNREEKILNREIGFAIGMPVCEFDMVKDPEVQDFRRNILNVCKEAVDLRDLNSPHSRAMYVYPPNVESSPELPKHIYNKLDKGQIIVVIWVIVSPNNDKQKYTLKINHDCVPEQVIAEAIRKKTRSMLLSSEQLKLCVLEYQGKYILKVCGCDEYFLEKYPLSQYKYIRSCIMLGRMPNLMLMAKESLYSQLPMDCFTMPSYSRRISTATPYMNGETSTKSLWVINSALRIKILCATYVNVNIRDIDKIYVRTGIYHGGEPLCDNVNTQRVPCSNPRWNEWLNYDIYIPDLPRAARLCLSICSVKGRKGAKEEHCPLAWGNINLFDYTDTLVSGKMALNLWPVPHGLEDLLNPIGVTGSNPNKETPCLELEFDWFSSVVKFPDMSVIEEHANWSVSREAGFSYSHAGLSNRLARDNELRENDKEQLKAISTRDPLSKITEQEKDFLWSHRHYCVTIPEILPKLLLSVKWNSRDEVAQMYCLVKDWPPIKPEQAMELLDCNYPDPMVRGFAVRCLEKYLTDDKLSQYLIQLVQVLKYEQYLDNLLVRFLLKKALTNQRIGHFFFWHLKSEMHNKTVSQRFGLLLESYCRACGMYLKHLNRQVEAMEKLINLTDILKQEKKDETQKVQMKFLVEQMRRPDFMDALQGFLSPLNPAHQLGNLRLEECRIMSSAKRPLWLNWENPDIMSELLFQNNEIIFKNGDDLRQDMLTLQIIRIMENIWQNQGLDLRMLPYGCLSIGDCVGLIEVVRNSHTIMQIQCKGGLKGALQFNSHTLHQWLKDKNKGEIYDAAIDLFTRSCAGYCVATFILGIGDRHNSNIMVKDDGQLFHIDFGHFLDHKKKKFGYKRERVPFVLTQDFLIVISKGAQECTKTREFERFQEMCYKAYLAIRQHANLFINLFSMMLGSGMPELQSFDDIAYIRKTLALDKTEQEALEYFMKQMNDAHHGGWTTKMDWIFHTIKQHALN
T2 sequence (P27986 whole entry partner): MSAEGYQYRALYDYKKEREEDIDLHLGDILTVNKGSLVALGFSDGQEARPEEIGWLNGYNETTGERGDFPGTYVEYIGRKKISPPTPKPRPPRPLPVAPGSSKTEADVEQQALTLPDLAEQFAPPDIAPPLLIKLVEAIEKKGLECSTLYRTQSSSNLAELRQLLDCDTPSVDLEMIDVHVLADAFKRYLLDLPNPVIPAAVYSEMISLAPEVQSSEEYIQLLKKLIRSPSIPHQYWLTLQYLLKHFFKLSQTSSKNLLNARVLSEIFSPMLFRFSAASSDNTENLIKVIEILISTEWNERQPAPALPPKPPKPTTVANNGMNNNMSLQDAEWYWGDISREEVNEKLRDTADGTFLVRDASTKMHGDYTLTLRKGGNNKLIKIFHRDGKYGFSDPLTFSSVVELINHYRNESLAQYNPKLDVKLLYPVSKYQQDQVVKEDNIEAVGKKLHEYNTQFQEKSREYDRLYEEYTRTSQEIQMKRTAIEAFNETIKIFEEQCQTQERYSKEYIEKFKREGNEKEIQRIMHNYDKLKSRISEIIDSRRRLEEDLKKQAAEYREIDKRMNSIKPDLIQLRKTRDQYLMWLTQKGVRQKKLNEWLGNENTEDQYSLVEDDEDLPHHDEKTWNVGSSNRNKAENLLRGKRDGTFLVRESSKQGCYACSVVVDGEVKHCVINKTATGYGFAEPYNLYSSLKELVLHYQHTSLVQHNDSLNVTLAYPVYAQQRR
Method: as §2, §3, §4, §5

PI3K (p110a(E545K)/p85a) = target: T3, PI3K (p110a(E545K)/p85a) (Homo sapiens, UniProt P42336, E545K); assay: Lipid kinase inhibitory activity, ADP-Glo; format: biochemical; settings: α E545K
T3 construct: purchased Reaction Biology Corporation (RBC)
T3 sequence (P42336 whole entry E545K): as the sequence (P42336 whole entry E542K) above, with K542E, E545K counted along it
T3 sequence (P27986 whole entry partner): as the sequence (P27986 whole entry partner) above
Method: as §2, §3, §4, §5

[5] = target: T4, PI3K (p110a(H1047R)/p85a) (Homo sapiens, UniProt P42336, H1047R); assay: Lipid kinase inhibitory activity, ADP-Glo; format: biochemical; settings: α H1047R
T4 construct: purchased Reaction Biology Corporation (RBC)
T4 sequence (P42336 whole entry H1047R): as the sequence (P42336 whole entry E542K) above, with K542E, H1047R counted along it
T4 sequence (P27986 whole entry partner): as the sequence (P27986 whole entry partner) above
Method: as §2, §3, §4, §5

PI3Ka (p110a/p85a) = target: T5, PI3Ka (p110a/p85a) (Homo sapiens, UniProt P42336); assay: Lipid kinase inhibitory activity, ADP-Glo; format: biochemical; settings: α
T5 construct: purchased Reaction Biology Corporation (RBC)
T5 sequence (P42336 whole entry): as the sequence (P42336 whole entry E542K) above, with K542E counted along it
T5 sequence (P27986 whole entry partner): as the sequence (P27986 whole entry partner) above
Method: as §2, §3, §4, §5

PI3Kb (p110b/p85a) = target: T6, PI3Kb (p110b/p85a) (Homo sapiens, UniProt P42338); assay: Lipid kinase inhibitory activity, ADP-Glo; format: biochemical; settings: β
T6 construct: purchased Reaction Biology Corporation (RBC)
Method: as §2, §3, §4, §5

PI3Kd (p110d/p85a) = target: T7, PI3Kd (p110d/p85a) (Homo sapiens, UniProt O00329); assay: Lipid kinase inhibitory activity, ADP-Glo; format: biochemical; settings: δ
T7 construct: purchased Reaction Biology Corporation (RBC)
T7 sequence (O00329 whole entry): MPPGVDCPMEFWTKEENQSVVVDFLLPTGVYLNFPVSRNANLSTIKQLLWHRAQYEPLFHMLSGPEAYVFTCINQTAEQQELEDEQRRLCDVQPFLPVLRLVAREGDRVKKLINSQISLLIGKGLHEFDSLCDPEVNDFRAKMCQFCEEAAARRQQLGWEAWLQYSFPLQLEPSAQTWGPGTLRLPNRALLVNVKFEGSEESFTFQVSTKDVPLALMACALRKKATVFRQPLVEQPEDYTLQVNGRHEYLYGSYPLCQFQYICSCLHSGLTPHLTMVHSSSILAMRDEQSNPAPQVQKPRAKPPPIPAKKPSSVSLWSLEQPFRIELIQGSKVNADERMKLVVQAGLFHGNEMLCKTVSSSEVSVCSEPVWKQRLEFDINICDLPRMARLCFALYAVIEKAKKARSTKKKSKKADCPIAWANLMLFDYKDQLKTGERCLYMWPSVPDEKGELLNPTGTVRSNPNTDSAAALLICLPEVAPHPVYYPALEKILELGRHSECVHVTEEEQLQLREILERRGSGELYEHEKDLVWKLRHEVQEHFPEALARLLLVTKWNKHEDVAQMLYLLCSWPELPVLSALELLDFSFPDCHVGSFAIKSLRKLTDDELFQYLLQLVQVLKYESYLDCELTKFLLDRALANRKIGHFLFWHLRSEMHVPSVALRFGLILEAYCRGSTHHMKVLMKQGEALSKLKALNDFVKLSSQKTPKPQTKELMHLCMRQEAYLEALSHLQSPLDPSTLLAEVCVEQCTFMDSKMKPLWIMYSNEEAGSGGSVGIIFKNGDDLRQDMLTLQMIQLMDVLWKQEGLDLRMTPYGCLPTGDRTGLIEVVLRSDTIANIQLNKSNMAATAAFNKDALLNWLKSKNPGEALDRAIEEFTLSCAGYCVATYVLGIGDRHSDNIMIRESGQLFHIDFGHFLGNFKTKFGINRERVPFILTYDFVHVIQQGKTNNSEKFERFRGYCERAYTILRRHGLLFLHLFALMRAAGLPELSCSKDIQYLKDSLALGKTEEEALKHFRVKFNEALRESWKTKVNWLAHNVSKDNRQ
T7 sequence (P27986 whole entry partner): as the sequence (P27986 whole entry partner) above
Method: as §2, §3, §4, §5

PI3Kg (p110g) = target: T8, PI3Kg (p110g) (Homo sapiens, UniProt P48736); assay: Lipid kinase inhibitory activity, ADP-Glo; format: biochemical; settings: γ
T8 construct: purchased Reaction Biology Corporation (RBC)
T8 sequence (P48736 whole entry): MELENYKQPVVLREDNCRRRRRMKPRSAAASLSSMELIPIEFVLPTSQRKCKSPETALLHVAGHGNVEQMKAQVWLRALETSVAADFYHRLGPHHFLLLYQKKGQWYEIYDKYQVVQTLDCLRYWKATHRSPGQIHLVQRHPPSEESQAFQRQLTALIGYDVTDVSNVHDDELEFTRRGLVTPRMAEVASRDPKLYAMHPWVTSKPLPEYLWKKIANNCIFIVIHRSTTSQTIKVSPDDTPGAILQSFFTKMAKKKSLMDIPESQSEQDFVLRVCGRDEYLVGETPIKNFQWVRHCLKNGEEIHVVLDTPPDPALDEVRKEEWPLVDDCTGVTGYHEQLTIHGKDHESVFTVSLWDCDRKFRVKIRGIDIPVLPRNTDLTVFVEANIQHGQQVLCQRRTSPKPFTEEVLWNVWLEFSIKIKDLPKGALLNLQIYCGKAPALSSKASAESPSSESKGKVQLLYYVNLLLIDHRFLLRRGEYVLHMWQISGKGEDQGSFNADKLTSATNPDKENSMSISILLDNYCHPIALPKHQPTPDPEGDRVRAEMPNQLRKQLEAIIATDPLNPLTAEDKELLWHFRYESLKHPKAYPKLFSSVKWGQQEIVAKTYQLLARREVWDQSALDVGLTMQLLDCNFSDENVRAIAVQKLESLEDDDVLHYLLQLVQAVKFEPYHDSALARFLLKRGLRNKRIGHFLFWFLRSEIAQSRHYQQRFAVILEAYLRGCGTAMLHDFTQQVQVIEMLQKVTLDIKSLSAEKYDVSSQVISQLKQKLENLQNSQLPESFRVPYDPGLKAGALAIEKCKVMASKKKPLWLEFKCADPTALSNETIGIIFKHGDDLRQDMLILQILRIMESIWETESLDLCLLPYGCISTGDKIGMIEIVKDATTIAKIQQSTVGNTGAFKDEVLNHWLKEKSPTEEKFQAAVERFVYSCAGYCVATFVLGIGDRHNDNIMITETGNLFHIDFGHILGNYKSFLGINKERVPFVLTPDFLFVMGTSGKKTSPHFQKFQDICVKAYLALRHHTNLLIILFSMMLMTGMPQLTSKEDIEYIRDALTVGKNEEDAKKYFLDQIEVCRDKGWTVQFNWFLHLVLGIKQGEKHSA
Method: as §2, §3, §4, §5

PI3K = settings: U.S. Pat. No. 6,838,457; cited from earlier work
cancer cell = settings: U.S. Pat. No. 6,838,457; cited from earlier work

## CCOC(=O)Oc1cccc(-c2nc(N3CCOCC3)c3sccc3n2)c1 [Compound 1.012, Ethyl (3-(4-morpholinothieno[3,2-d]pyrimidin-2-yl)phenyl) Carbonate]
[1]
  Metabolism to MTPP during permeation through human skin: completely metabolize into MTPP
[2]
  Saturation concentration in the gel formulation: 58 mg/mL
[3]; Day 0
  Relative Purity: 100%
[3]; Day 5
  Relative Purity: 99%
[3]; Day 10
  Relative Purity: 96%
[4]; 2 h
  Cumulative permeation, Compound 1.012: 0.0 μg/cm^2
  Hydrolysis of Cmpd. 1.012 to MTPP: 100%
[4]; 4 h
  Cumulative permeation, Compound 1.012: 0.0 μg/cm^2
  Hydrolysis of Cmpd. 1.012 to MTPP: 100%
[4]; 8 h
  Cumulative permeation, Compound 1.012: 0.0 μg/cm^2
  Hydrolysis of Cmpd. 1.012 to MTPP: 100%
[4]; 24 h
  Cumulative permeation, Compound 1.012: 0.0 μg/cm^2
  Hydrolysis of Cmpd. 1.012 to MTPP: 100%
[4]; 48 h
  Cumulative permeation, Compound 1.012: 0.0 μg/cm^2
  Hydrolysis of Cmpd. 1.012 to MTPP: 100%

## Oc1cccc(-c2nc(N3CCOCC3)c3sccc3n2)c1 [MTPP, 3-(4-morpholinothieno(3,2-d)pyrimidin-2-yl)phenol, reference compound]
[1]
  Metabolism to MTPP during permeation through human skin: permeated as its intact compound
MTOR/FRAP1
  pIC50: 6.66
PI3K (p110a(E542K)/p85a)
  pIC50: 8.25
PI3K (p110a(E545K)/p85a)
  pIC50: 8.20
[5]
  pIC50: 8.14
PI3Ka (p110a/p85a)
  pIC50: 8.28
PI3Kb (p110b/p85a)
  pIC50: 7.42
PI3Kd (p110d/p85a)
  pIC50: 7.72
PI3Kg (p110g)
  pIC50: 7.05
[4]; 2 h
  Cumulative permeation (intact compound): 0.23 μg/cm^2
[4]; 4 h
  Cumulative permeation (intact compound): 4.74 μg/cm^2
[4]; 8 h
  Cumulative permeation (intact compound): 15.85 μg/cm^2
[4]; 24 h
  Cumulative permeation (intact compound): 43.32 μg/cm^2
[4]; 48 h
  Cumulative permeation (intact compound): 70.13 μg/cm^2
PI3K
  PI3K inhibiting activity: excellent PI3K inhibiting activity
Cancer cell
  Cancer cell growth inhibiting activity: cancer cell growth inhibiting activity
